Here are results for one sequence from patent publication US20250064983A1, “COMPOSITIONS AND METHODS FOR TREATING A CARDIAC DISEASE” (The Children's Medical Center Corporation, priority 2022, published 2025).

“Also recorded” adds a separate entry of the source.

One test deals with CaMKII. Briefly: phosphorylation of phospholamban (PLB) at threonine-17 in whole heart lysates exposed to isoproterenol. The format is in vivo, mouse. The note with it: exposed to isoproterenol (ISO), FIG. 3. The protocol: FIG. 3 provides a chart, a capillary Western image, and a plot showing the effects of the indicated constructs, which are described in FIG. 2D, on CaMKII activity in vivo. To confirm suppression of CaMKII activation in vivo, phosphorylation of phospholamban (PLB) at threonine-17, a known target of CaMKII, was analyzed from whole heart lysates. The middle panel of FIG. 3 provides a capillary Western image showing glyceraldehyde-3-phosphate dehydrogenase polypeptide (GAPDH) expression in cells contacted (+) or not contacted (−) with isoproterenol (ISO), as well as the levels of phosphorylated PLB (pPLB) and non-phosphorylated PLB (PLB). The right panel of FIG. 3 provides a plot showing the ratio of pPLB to PLB in hearts treated with no ISO or with ISO and mCherry (the “ISO” sample), AIP, AIP×5, AIP-FKBP12.6, CN19o, CN19oX3, or CN19o-FKBP12.6, which are described in FIG. 2D.
To confirm suppression of CaMKII activation in vivo, phosphorylation of phospholamban (PLB) at threonine-17, a known target of CaMKII, was evaluated in heart tissue from mice and whole heart lysates exposed to isoproterenol (ISO) (FIG. 3). Exposure of cardiac cells to ISO induced phosphorylation of PLB by CaMKII (FIG. 3).

The subject of test [1] is RYR2^R4650I/WT mouse model of CPVT. Briefly: ectopy and induced VT in RYR2^R4650I/WT mouse model of CPVT, AAV delivery. It is filed as in vivo. From the text:
FIGS. 2A-2G provide plots, a protein structure, schematics, a bar graph, and images showing how a therapeutic cargo containing a CaMKII inhibitor was optimized to treat catecholaminergic polymorphic ventricular tachycardia (CPVT) through altering potency, binding, and/or multimerization of the CaMKII inhibitor. FIG. 2A provides plots showing the IC50 concentrations for the autocamtide-2-related inhibitory peptide (AIP) and CN19o (Coultrap, et al. “Improving a Natural CaMKII Inhibitor by Random and Rational Design,” PLoS One, Oct. 3, 2011, doi.org/10.1371/journal.pone.0025245; and Ishida, et al, “Critical amino acid residues of AIP, a highly specific inhibitory peptide of calmodulin-dependent protein kinase II,” FEBS Letters, 427:115-118 (1998), the disclosures of which is incorporated herein by reference in its entirety for all purposes). […]
The development of improved agents for the treatment of CPVT, the CPVT treatment efficacy of polypeptides A) containing multiple repeats of AIP (FIG. 2C) or the potent CaMKII inhibitor CN19o or B) containing AIP or CN19o fused to FKBP12.6 (FIG. 2B), which binds RYR2, which is a target of CaMKII (FIG. 1A). […] The efficacy of the polypeptides in treatment of catecholaminergic polymorphic ventricular tachycardia (CPVT) was evaluated in the RYR2^R4650I/WT mouse model of CPVT as shown in FIG. 2D. […]

The subject of another test is Tbx5 knockout mice. Briefly: Example 5: beat-to-beat variability (EKG) in Tbx5 knockout mice (AF model). The format is in vivo, mouse. From the text:
Two different atrial fibrillation (AF) mouse models were used to test the efficacy of AIP×5 at treating AF of different origins. The two different AF mouse models were liver kinase B1 (LKB1) knock out mice and T-box transcription factor 5 (Tbx5) knock out mice.
LKB1-floxed or Tbx5-floxed mice were used to test the efficacy of AIP×5. AAV-NPPA-Cre was then used to conditionally knock out LKB1 or Tbx5 from the atria of the mice. NPPA is an atria specific promoter, ensuring that Cre recombinase directed knockout of LKB1 or Tbx5 was restricted to the atria. AAV-NPPA-FP (fluorescent protein) was used as a control virus. AAV-NPPA-FP has no Cre, and therefore the gene of interest is not knocked out. Uninjected mice were also included as a control to account for any effects caused by AAV injections. AAV-cTnT-AIP×5 or AAV-cTnT-CN19o were both tested as potential therapies to AF.
In short, P3 LKB1-floxed or Tbx5-floxed mice were injected (or not injected in the uninjected controls), and then EKG measurements of the mice were taken every two weeks starting at P14. At 12 weeks, the mice were sacrificed, and the sacrificed mice were tested for protein expression.
AF was calculated using the standard deviation of the beat-to-beat timing differences. A high beat-to-beat variability when sedated was indicative of atrial misfiring. […]

As for “YKKALHRQEAVDALYKKALHRQEAVDALYKKALHRQEAVDALYKKALHRQEAVDALYKKALHRQEAVDAL [AIP×5]”, the “PLB phosphorylation (pPLB to PLB)” value in the test on CaMKII is recorded as “statistically significant decrease in PLB phosphorylation”. Also, the “percent of mice that showed induced ventricular tachycardia (VT)” value in test [1] (AAV vector (FIG. 2F)) is listed as “reduction in instances of induced VT”. Further, in test [1] (RYR2^R4650I/WT mice, AAV vector (FIG. 2E, 2F)), the “percent ectopy / CPVT treatment efficacy” value is reported as “greatest reduction in instances of ectopy; also recorded: most effective in treating CPVT”. The “suppression of beat-to-beat variability” value in the test on Tbx5 knockout mice (AAV-cTnT vector, FIG. 11) was “reduction in beat-to-beat variability; also recorded: effective in suppressing beat-to-beat variability”. In addition, the “beat-to-beat variability, statistical difference to control” value in the test on Tbx5 knockout mice (after week 4) is recorded as “no statistically significant difference in beat-to-beat variability”.
